Experimental data: patent US20130203843A1, “MILD CATIONIC MITOCHONDRIAL UNCOUPLERS” (LIMITED LIABILITY COMPANY MITOTECH, priority 2010, published 2013)

Legend:
[1] = tested on: rats with induced rhabdomyolysis; assay: Rhabdomyolysis-induced acute renal failure in rats; format: in vivo; settings: rat; i.p. 100 nmol/kg per injection, total 400 nmol/kg; 48 h after glycerol; versus rhabdomyolysis without treatment
Description: FIG. 6. Creatinine level in blood of rats with induced rhabdomyolysis. Histogram bar “control” indicates level of creatinine in control group of animals; “rhabdo”—creatinine level in animals with rhabdomyolysis; “rhabdo+C12-R19”—creatinine level in animals with rhabdomyolysis and treatment with C12R19. All data are presented as mean±standard error of measurement.
Induction of rhabdomyolysis was performed according to standard method by injecting rat leg muscles with 50% aqueous glycerol solution (ICN, USA). At the second day after ischemia, blood samples from animals were taken. Creatinine concentration in blood was determined using a CellTac blood analyzer (Nihon Kohben). Experiments on modeling of rhabdomyolysis were performed with at least 8 animals from each group. All data are presented as mean±standard error of measurement.
For the treatment, the following scheme of C12R19 administration was used: intraperitoneal injection of the preparation 1 h after induction of rhabdomyolysis and then three times every 12 hours at a dose of 100 nmol/kg per injection. Thus, an animal received a total dose of 400 nmol/kg of C12R19.

[2] = tested on: whole yeast (Saccharomyces cerevisiae) cells; assay: Rate of oxygen consumption by whole yeast cells; format: cell-based; settings: for stimulation of respiration versus suppression of growth: wide range of concentrations, yeast grown on nonfermentable substrate (glycerol)
Description: (§1) FIG. 3. Comparison of properties of C12R19 and C12RB based on relative rate of oxygen consumption by whole yeast (Saccharomyces cerevisiae) cells (A) and yeast growth rate (B). V/V0 corresponds to ratio of oxygen consumption rates after and before addition of uncoupler. Growth rate was defined as the number of CFU (colony-forming units) in cell suspension culture incubated for 2 hours in the presence of indicated concentration of rhodamine derivative.
(§2) FIG. 4. Comparison of stimulation of respiration and suppression of growth: (A) cationic (C12R19), and (B) anionic (FCCP) uncouplers in yeast (Saccharomyces cerevisiae) cells grown on nonfermentable substrate (glycerol). Stimulation of respiration was estimated based on the ratio of oxygen consumption rate in the presence of uncoupler (V) to initial rate (V0). Growth rate was assessed by increase in the number of cells for a given time interval. Growth rate in the absence of uncoupler was taken as 100%.
Simulation of respiration of whole yeast cells reflects uncoupling properties of tested compound.

[3] = Dissipation of pH gradient in membranes of pyranine-loaded liposomes; settings: for dissipation of pH gradient (intraliposomal pH change), protonophore activity: in the presence of valinomycin (10 nM), C12R19 and C12RB at 0.15 μM, pH 8 buffer
Description: FIG. 2. […] Intraliposomal pH was estimated based on the ratio of the intensities of fluorescence at 455 nm and 505 nm (excitation at 410 nm). 1 μM nigericin was added at 550 s for final pH adjustment. Control curve contained C12R19 but no valinomycin. Concentrations: C12R19 (150 nM), C12RB (150 nM), valinomycin (10 nM), lipid (75 μM). […] Control curve corresponds to addition of 10 nM valinomycin without protonophores. Buffer containing 10 mM MES, 10 mM MOPS, 10 mM TRICINE, and 0.1 M KCl (pH 8) was used.
This method was used in various studies on the protonophore activity and is described in detail in article: Chen Y, Schindler M, Simon S M (1999) J Biol Chem 274:18364-18373. […] Said measurements were performed in the presence of valinomycin, the K^+ ionophore.

[4] = tested on: yeast Saccharomyces cerevisiae; assay: Yeast growth rate in the presence of uncoupler; format: cell-based; settings: 5 μM; incubated for 2 hours
Description: as §1, §2
Under similar conditions experiments determining yeast growth rate in the presence of a given concentration of uncoupler were performed.

[5] = Diffusion potential on planar bilayer lipid membrane ("black membrane" model); settings: for formation of potential upon creation of gradient of the penetrating cation: 1 μM on cis side, same pH on both sides (pH=7); for formation of proton diffusion potential across lipid bilayer: 1 μM, pH_cis=7, pH_trans=8
Description: FIG. 1. A. C12R19, but not C12RB, induces formation of proton diffusion potential across planar lipid bilayer membrane prepared from DPhPC. Concentrations of C12R19 and C12RB are 1 μM. pH_cis=7, pH_trans=8. B. Formation of potential upon creation of gradient of penetrating cations C12RB and C12R19 (1 μM on cis side) at the same pH on both sides (pH=7).
To test penetrating ability of mitochondria-targeted compounds of structure (I), a method based on the ability of ions to penetrate through the bilayer phospholipid membrane moving along concentration gradient was used. The two chambers filled with an aqueous solution are separated by the bilayer membrane, the compound tested is added to one of the chambers. If a charged compound is capable of penetrating through the bilayer membrane, fast diffusion of the compound from the chamber with its high concentration to the chamber with its low concentration occurs, thus difference in the potentials is formed across the membrane. For ions carrying one charge and capable of passive penetrating through the membrane, the 10-fold concentration gradient allows to produce the potential of 60 mV at room temperature and ideal permeability (according to the Nernst equation).
This method was used in various studies on the ability of ions to penetrate through a bilipid membrane and is described in detail in article: Starkov A A, Bloch D A, Chernyak B V, Dedukhova V I, Mansurova S A, Symonyan R A, Vygodina T V, Skulachev V P, 1997, Biochem. Biophys Acta, 1318, 159-172. With this method, C12-R19 (compound of structure (I)) was tested.
It is known that addition of protonophore to such a system should lead to formation of the electric potential due to the flow of protons. […] This can be explained by shunting of potential due to induction of proton conductivity in the presence of C12R19.

[6] = tested on: ischemized rats; assay: Cerebral ischemia in rats (middle cerebral artery blockage): MRT infarct volume and neurological deficit; format: in vivo; settings: rat, i.p. 100 nmol/kg 24 hours before ischemia, 1 day after surgery
Description: FIG. 7. Results of behavioral tests in rats before and at the first day after induction of ischemia. Bar “baseline” indicates final points in animals before surgery; “SO”—points in sham-operated animals; “ischemia+saline”—points in ischemized animals without treatment, with saline solution instead of the preparation; “ischemia+C12R19 0.1 μM” and “ischemia+C12R19 2 μM”—points in ischemized animals with treatment with preparation C12R19 at indicated concentrations. Statistically significant (p<0.01) reduction in severity of neurological deficit in rats treated with C12R19, denoted as
Cerebral ischemia in rats was induced by insertion of nylon thread with silicone coating into the middle cerebral artery. Blockage of the blood flow was maintained for 60 min, after which the thread was removed from the vessel restoring the blood flow in the middle cerebral artery. During and after the surgery the body temperature of the animal was maintained at 37° C. Sham-operated animals were subjected to the same procedures, except for cutting vessels and insertion of thread. The volume of cerebral infarction was determined at the first day to study neuroprotective effects of preparations. […]
1 day after surgery, neurological deficit was determined in rats in the test “Stimulation of legs” and magnetic resonance imaging of the brain was performed. […]

[7] = tested on: yeast cells treated with 80 μM amiodarone; assay: Survival of yeast cells treated with amiodarone; format: cell-based, Saccharomyces cerevisiae
Description: FIG. 5. Comparison of resistance of yeast cells to 80 μM amiodarone in the presence of different concentrations of anionic (FCCP) and cationic (C12R19) uncouplers.
To test this, we compared the survival of yeast cells treated with 80 μM amiodarone in the presence of 1-10000 nmol/L FCCP and C12R19.

[8] = tested on: obese people; settings: obese people treated with DNP; cited from earlier work
[9] = tested on: yeast cells treated with 80 μM amiodarone; settings: earlier publication (Pozniakovsky 2005); cited from earlier work

CCCCCCCCCCCCOC(=O)c1ccccc1-c1c2cc(C)c(=NCC)cc-2oc2cc(NCC)c(C)cc12 (stereo in doubt) [C12R19, Dodecyl-2-[(3E)-6-(ethylamino)-3-(ethylimino)-2,7-dimethyl-3H-xanthen-9-yl]benzoate bromide]
creatinine level in blood [1]: decrease in creatinine level in blood
rate of respiration of whole yeast cells ([2]; concentration range that includes 5 μM): marked stimulation of the rate of respiration
rate of respiration of whole yeast cells ([2]; up to a concentration of 15 μM): did not reduce the rate of respiration
stimulation of respiration versus suppression of growth [2]: increases respiration rate without inhibiting yeast growth
intraliposomal pH changes ([3]; in the absence of valinomycin, C12R19 150 nM): pH changes did not occur
dissipation of pH gradient (intraliposomal pH change), protonophore activity [3]: significant changes of intraliposomal pH on the time-scale of minutes
yeast growth rate (CFU) [4]: significant reduction in the growth rate of the yeast Saccharomyces cerevisiae is not observed
formation of potential upon creation of gradient of the penetrating cation [5]: did not
formation of proton diffusion potential across lipid bilayer [5]: can generate potential
neurological deficit, test "Stimulation of legs" (14-point scale) ([6]; control rats 2.0±0.2, p<0.01): 5.3±1.1 points
volume of ischemic damage (T2-weighted MRT) ([6]; saline = 100±8.6%): 80.4±11.5%
concentration range of cationic uncoupler relative to FCCP [7]: at least an order of magnitude higher
concentration range protecting cells against amiodarone ([7]; 1-10000 nmol/L tested): 1 to 1000 nmol/L

CCCCCCCCCCCCOC(=O)c1ccccc1-c1c2ccc(N(CC)CC)cc2[o+]c2cc(N(CC)CC)ccc12 [C12RB]
rate of respiration of whole yeast cells ([2]; concentration of 4 μM): significant increase in the rate of respiration
rate of respiration of whole yeast cells ([2]; further increase in concentration above 4 μM): inhibition of respiration
dissipation of pH gradient (intraliposomal pH change), protonophore activity [3]: practically no activity
formation of potential upon creation of gradient of the penetrating cation [5]: induced the potential upon addition at one side
formation of proton diffusion potential across lipid bilayer [5]: but not C12RB, can generate potential

O=[N+]([O-])c1ccc(O)c([N+](=O)[O-])c1 [DNP, 2,4-dinitrophenol]
side effects in patients [8]: many of them showed severe side effects
weight loss in patients [8]: virtually all of the patients lost weight

N#CC(C#N)=NNc1ccc(OC(F)(F)F)cc1 [FCCP]
uncoupling efficiency estimated from rate of oxygen consumption ([2]; FCCP compared with C12R19): much higher than that of C12R19
stimulation of respiration versus suppression of growth [2]: in contrast to FCCP
dissipation of pH gradient (intraliposomal pH change), protonophore activity [3]: significantly greater activity
yeast cell death caused by amiodarone [9]: prevents yeast cell death caused by amiodarone

CC(C)[C@@H]1NC(=O)[C@H](C)OC(=O)[C@@H](C(C)C)NC(=O)[C@@H](C(C)C)OC(=O)[C@H](C(C)C)NC(=O)[C@H](C)OC(=O)[C@@H](C(C)C)NC(=O)[C@@H](C(C)C)OC(=O)[C@H](C(C)C)NC(=O)[C@H](C)OC(=O)[C@@H](C(C)C)NC(=O)[C@@H](C(C)C)OC1=O [valinomycin]
proton flux on liposomes by valinomycin itself ([3]; control experiments, data not shown): does not induce proton flux on liposomes
